Assay results reported in US20050239891A1, “Use of citrulline within the framework of intestinal insufficiency” (priority 2003, published 2005).

Assays:
[1] = system: rats that have undergone an intestinal resection (short-bowel syndrome model); experiment: Short-bowel syndrome model: enteral nutrition supplemented with citrulline or arginine after intestinal resection; format: in vivo, Wistar rats; conditions: for weight gain: resected rats (approx. 80% of small intestine), after 10 days of enteral nutrition, L-citrulline 1 g/kg/day or L-arginine 0.994 g/kg/day, AANE approx. 15 g, SHAM approx. 21 g (FIG. 1)
Description: The rat was chosen as model to evaluate the effect of supplementation with citrulline within the framework of an intestinal insufficiency and in particular within the framework of the short-bowel syndrome.
24 Wistar rats weighing approximately 220-230 g were used. They were acclimatized in metabolic cages for 5 days before being operated on; during this period they had free access to water and standard laboratory food.
The intakes of L-arginine and L-citrulline correspond to those used in humans taking account of the difference in metabolic rate between the two species (rate approximately 10 times higher in the rat).
Enteral nutrition was carried out for 10 days continuously by the insertion of a gastric probe. The nitrogen intake was 2 g/kg/day and the calorie intake 290 kcal/kg/day. The food rations were rendered isonitrogenous by intake of a mixture of non-essential amino acids (Gly, Ala, Ser, His, Pro, Asn) (Sigma-Aldrich).
Three types of measurements were carried out in particular: a daily measurement of the weight of the animals, a measurement of the concentration of arginine in the plasma at the end of the experiment by ion-exchange chromatography using a JEOL device and a daily monitoring of the cumulative nitrogen balance by adding up the daily differences between the quantity of nitrogen absorbed and the quantity of nitrogen evacuated in the urine by pyroluminescence using an ANTEK apparatus.

[2] = Plasma amino acid concentrations in malnourished aged rats after renutrition; format: in vivo, Sprague-Dawley rats; conditions: male, Sprague-Dawley, rat, plasma, oral; elderly malnourished rats, diet enriched with L-citrulline 5 g/kg/d for a week; average ± SDM; p<0.05 vs AL, R and AANE
Description: (§1) Male Sprague-Dawley rats (Charles River Laboratories, L'Arbresles, France) aged 19 months were placed in individual cages, in a thermostatically controlled ambience (23°±1° C.), and subjected to a 12-hour light-darkness cycle (darkness from 08.00 hours to 20.00 hours). Their acclimatization was carried out over 2 weeks, during which their spontaneous food consumption was measured. They were fed a standard diet (A04, UAR, Villemoisson-sur-Orge, France) containing 17% proteins, 3% lipids, 59% carbohydrates and 21% water, fibres, vitamins and minerals. The average food intake during this period is 34.4 g/day.
(§2) After the acclimatization period, the rats were divided into 4 groups (cf. FIG. 5): a control group comprising rats (n=10) fed ad libitum (AL) for 12 weeks and 3 other groups subjected to a food restriction during the same period, i.e. fed with only 50% of the spontaneous ingesta (i.e. 17.2 g), with the standard diet (UAR A04).
(§3) At the end of the restriction period, the animals (n=10) in one group were […] sacrificed (group R) and the rats of the two remaining groups were fed for a week with 90% of the spontaneous ingesta (i.e. 30.9 g), either on a diet enriched with non-essential amino acids (AANE group: alanine, asparagine, glycine, serine, histidine, and proline supplied in equimolar fashion) or on a diet enriched with L-citrulline (5 g/kg/d) (citrulline group). The intakes of the two groups were isonitrogenous and isocaloric. The limitation to 90% of the spontaneous intakes makes it possible to be certain that the rats consume all of the food offered to them (Walrand et al., 2000).
(§4) At the end of the experimental period, the rats, in post-absorptive situation, were anaesthetized with isoflurane (3%) and received a subcutaneous injection of ^13C-valine at variable times before being killed by decapitation.
(§5) The blood was collected on heparin and centrifuged (3500 rpm, at +4° C. for 15 minutes). […]
(§6) The results are presented in the form of an average ±standard deviation from the mean (SDM). The results are analyzed by an ANOVA followed by an a posteriori Duncan test. […]

[3] = system: elderly malnourished rats; experiment: as above; format: in vivo, Sprague-Dawley rats; conditions: diet enriched with L-citrulline 5 g/kg/d for a week, average ± SDM, p<0.05 vs AL, R and AANE
Description: as §1, §2, §3, §4, §5, §6

[4] = system: elderly malnourished rats; experiment: Tibialis muscle amino acid content in malnourished aged rats after renutrition; format: in vivo, Sprague-Dawley rats; conditions: diet enriched with L-citrulline 5 g/kg/d for a week, average ± SDM, p<0.05 vs AL, R and AANE
Description: as §1, §2, §3
The 2 Tibialis muscles (TIB) were removed in order to determine on the one hand the protein and amino acid content (right TIB) and on the other hand, the fractional (FSR) and absolute (ASR) protein synthesis rates (left TIB). […]
as §6

[5] = system: elderly malnourished rats; experiment: Tibialis muscle protein content (Gornall method) in malnourished aged rats after renutrition; format: in vivo, Sprague-Dawley rats; conditions: after renutrition phase, L-citrulline 5 g/kg/d for a week; CIT vs AL, R, AANE, p<0.05 (FIG. 4)
Description: as §1
as §2, with “A04). […]” for “A04).”
Determination of the protein content was carried out on the TIB. […] The proteins content of the TIB is measured by the Gornall method. […]
as §6

[6] = system: elderly malnourished rats; experiment: Tibialis muscle protein synthesis rate (13C-valine incorporation) in malnourished aged rats after renutrition; format: in vivo, Sprague-Dawley rats; conditions: L-citrulline 5 g/kg/d for a week
Description: as §1
as §2, with “A04). […]” for “A04).”
The synthesis rate was determined on the TIB by the method of injecting a dose of a tracer amino acid charge. […]

SMILES | weight gain [1] | concentration of arginine in the plasma ([1]; resected rats, after 10 days of supplemented enteral nutrition, compared with SHAM control (FIG. 2)) | cumulative nitrogen balance ([1]; resected rats, 10 days of supplemented enteral nutrition, compared with SHAM control (FIG. 3)) | concentration at 1 week [2] | Concentration of Ornithine in the plasma [3] | concentration of arginine in the plasma [3] | Concentration of Arginine in the TIB [4] | Concentration of Citrulline in the TIB [4] | Concentration of Ornithine in the TIB [4] | protein concentrations in the TIB [5] | fractional protein synthesis rate (FSR) in the Tibialis muscle ([6]; compared with the other groups (FIG. 5A)) | absolute protein synthesis rate (ASR) in the Tibialis muscle ([6]; CIT vs R and AANE, p<0.05 (FIG. 5B))
N=C(N)NCCC[C@H](N)C(=O)O [ARG, L-arginine, reference compound] | approximately 17 g | increase the concentration of arginine in the plasma compared with the control |  |  |  |  |  |  |  |  |  | 
NC(=O)NCCC[C@H](N)C(=O)O [CIT, L-citrulline] | approximately 21 g |  | re-establish a nitrogen balance in the animals that have undergone resection, at the same level as that of the control group | 2390 ± 279 µM | 223 ± 27 µmol/L | 561 ± 55 µmol/L | 203 ± 35 nmol/g | 616 ± 104 nmol/g | 20 ± 4 nmol/g | significant increase | does not seem significant | significant increase
